Laboratory results taken from patent publication US5869675A, “Lactacystin derivatives” (The Kitasato Institute, priority 1994, dated 1999).
Read-outs that look alike come from different tables or passages of the source.

Experiments:
Neuro 2A cells [1] = assay: Activity of neuritogenesis (bipolar outgrowth of neurites) in Neuro 2A cells, minimum effective dose; assay type: cell-based, mouse; settings: for minimal effective concentration: Mus musculus, N2a, read-out: Minimum effective dose (A)
Procedure: (§1) Morphological changes of Neuro 2A cells are observed according to the method of Baglioni et al. [J. Biol. Chem., 266: 18620 (1991)].
Neuro 2A cells were plated at a density of 1×10^4 cells/cm^2 in a 24-hole plate, and cultured in MEM-H with 10% FBS.

Neuro 2A cells [2] = assay: Selective toxicity (ratio of cytotoxicity/minimum effective dose); assay type: cell-based, mouse
Description: 2. No specific test method for selective toxicity of the compounds is known, therefore the selective toxicity is defined as the ratio of cytotoxicity/minimum effective dose.

[3] = Cytotoxic action on Neuro 2A cells; assay type: cell-based; settings: mouse, no attached cells observed in more than 2/3 of the whole cells, read-out: Cytotoxicity (B)
Procedure: as §1
Neuro 2A cells were plated at a density of 1×10^4 cells/cm^2 in a 24-hole plate, and cultured in MEM-H with 10% FBS. On the next day, lactacystin or lactacystin derivatives were added at the concentration of 0.05-100 μM, and morphological changes of the cells with time were observed by phase contrast microscopy.

[4] = system: intracelluar cAMP level in Neuro 2A; assay: Transient increase in the intracellular cAMP level in mouse neuroblastoma cell line Neuro 2A; assay type: cell-based
[5] = cited from earlier work
[6] = Neuro 2A cells, concentration in which approximately 20% of whole cells showed bipolar outgrowth of neurites

Row | Compound | minimal effective concentration (Neuro 2A cells [1]; [6]) [µM] | Selective toxicity (B/A) (Neuro 2A cells [2]) | MCC [3] [µM] | intracelluar cAMP level [4] | neuritogenesis (Neuro 2A cells [1]; mouse neuroblastoma cell line Neuro 2A) | cytotoxicity ([5]; known compound) | neuritogenesis activity ([5]; known from literature) | minimal effective concentration (Neuro 2A cells [1]) [µM]
1 | CC(C)SC(=O)[C@]1([C@@H](O)C(C)C)NC(=O)[C@H](C)[C@@H]1O [Example 9, 3-hydroxy-2-(1-hydroxy-2-methylpropyl)-4-methyl-5-oxo-2-pyrrolidine-iso-propanethiocarboxylate] | 0.4 | 31 | 12.5 |  |  |  |  | 
2 | COC(=O)CSC(=O)[C@]1([C@@H](O)C(C)C)NC(=O)[C@H](C)[C@@H]1O [Example 20, 3-hydroxy-2-(1-hydroxy-2-methylpropyl)-4-methyl-5-oxo-2-pyrrolidine-methoxycarbonylthiocarboxylate] | 0.8 | 16 | 12.5 |  |  |  |  | 
3 | COC(=O)[C@H](CSC(=O)[C@]1([C@@H](O)C(C)C)NC(=O)[C@H](C)[C@@H]1O)NC(C)=O [Example 5, lactacystin methyl ester] | 0.78 | 8 | 6.25 |  |  |  |  | 
4 | CCC(C)SC(=O)[C@]1([C@@H](O)C(C)C)NC(=O)[C@H](C)[C@@H]1O (stereo partly shown) [Example 11, 3-hydroxy-2-(1-hydroxy-2-methylpropyl)-4-methyl-5-oxo-2-pyrrolidine-1-methyl-1-propanethiocarboxylate] | 0.4 | 31 | 12.5 |  |  |  |  | 
5 | CC(C)[C@H](O)[C@@]1(C(=O)SCCN(C)C)NC(=O)[C@H](C)[C@@H]1O [Example 18, 3-hydroxy-2-(1-hydroxy-2-methylpropyl)-4-methyl-5-oxo-2-pyrrolidine-2-N-dimethyl-ethanethiocarboxylate] | 0.2 | 31 | 6.25 |  |  |  |  | 
6 | COC(=O)CCSC(=O)[C@]1([C@@H](O)C(C)C)NC(=O)[C@H](C)[C@@H]1O [Example 21, 3-hydroxy-2-(1-hydroxy-2-methylpropyl)-4-methyl-5-oxo-2-pyrrolidine-methoxycarbonylethylthiocarboxylate] | 0.2 | 8 | 1.56 |  |  |  |  | 
7 | CC(C)[C@H](O)[C@@]1(C(=O)Sc2ccc(O)cc2)NC(=O)[C@H](C)[C@@H]1O [Example 16, 3-hydroxy-2-(1-hydroxy-2-methylpropyl)-4-methyl-5-oxo-2-pyrrolidine-4-hydroxyphenylthiocarboxylate] | 0.4 | 31 | 12.5 |  |  |  |  | 
8 | CC(C)[C@H](O)[C@@]1(C(=O)SCCC(N)C(=O)O)NC(=O)[C@H](C)[C@@H]1O (stereo partly shown) [Example 24] | 1.56 | 16 | 25 |  |  |  |  | 
9 | CCCCCSC(=O)[C@]1([C@@H](O)C(C)C)NC(=O)[C@H](C)[C@@H]1O [Example 12, 3-hydroxy-2-(1-hydroxy-2-methylpropyl)-4-methyl-5-oxo-2-pyrrolidine-1-pentanethiocarboxylate] | 0.8 | 16 | 12.5 |  |  |  |  | 
10 | CC(=O)N[C@@H](CSC(=O)[C@]1([C@@H](O)C(C)C)NC(=O)[C@H](C)[C@@H]1O)C(=O)O [lactacystin] |  |  |  | cause a transient increase in the intracelluar cAMP level | induce neuritogenesis | highly cytotoxic | having neuritogenesis activity | 
11 | CC(C)[C@H](O)[C@@]1(C(=O)SCCN)NC(=O)[C@H](C)[C@@H]1O [Example 4, des-N-acetyldescarboxylactacystin] | 3.12 | 8 | 25 |  |  |  |  | 
12 | CC(C)[C@H](O)[C@@]1(C(=O)SC[C@H](NC(=O)CC[C@H](N)C(=O)O)C(=O)NCC(=O)O)NC(=O)[C@H](C)[C@@H]1O [Example 26, glutathione-3-hydroxy-2-(1-hydroxy-2-methylpropyl)-4-methyl-5-oxo-2-pyrrolidinethiocarboxylate] | 0.8 | 31 | 25 |  |  |  |  | 
13 | CC(C)[C@H](O)[C@@]1(C(=O)Sc2ccncc2)NC(=O)[C@H](C)[C@@H]1O [Example 23, 3-hydroxy-2-(1-hydroxy-2-methylpropyl)-4-methyl-5-oxo-2-pyrrolidine-4-pyridylthiocarboxylate] | 0.8 | 16 | 12.5 |  |  |  |  | 
14 | CC(SC(=O)[C@]1([C@@H](O)C(C)C)NC(=O)[C@H](C)[C@@H]1O)C(=O)NCC(=O)O (stereo partly shown) [Example 25, 2-S-propionylglycine-3-hydroxy-2-(1-hydroxy-2-methylpropyl)-4-methyl-5-oxo-2-pyrrolidinecarboxylate] | 1.56 | 8 | 12.5 |  |  |  |  | 
15 | CCCSC(=O)[C@]1([C@@H](O)C(C)C)NC(=O)[C@H](C)[C@@H]1O [Example 8] | 0.2 | 16 | 3.12 |  |  |  |  | 
16 | CCOC(=O)CCSC(=O)[C@]1([C@@H](O)C(C)C)NC(=O)[C@H](C)[C@@H]1O [Example 3, des-N-acetylaminolactacystin ethyl ester] | 0.2 | 16 | 3.12 |  |  |  |  | 
17 | CC(C)[C@H](O)[C@@]1(C(=O)Sc2ccccc2)NC(=O)[C@H](C)[C@@H]1O [Example 13, 3-hydroxy-2-(1-hydroxy-2-methylpropyl)-4-methyl-5-oxo-2-pyrrolidine-phenythiocarboxylate] |  | 16 | 12.5 |  |  |  |  | 0.8
18 | CC(C)[C@H](O)[C@@]1(C(=O)SCC(=O)O)NC(=O)[C@H](C)[C@@H]1O [Example 19, 3-hydroxy-2-(1-hydroxy-2-methylpropyl)-4-methyl-5-oxo-2-pyrrolidine-1-carboxymethylthiocarboxylate] | 0.4 | 31 | 12.5 |  |  |  |  | 
19 | CCSC(=O)[C@]1([C@@H](O)C(C)C)NC(=O)[C@H](C)[C@@H]1O [Example 7, 3-hydroxy-2-(1-hydroxy-2-methylpropyl)-4-methyl-5-oxo-2-pyrrolidine-ethanethiocarboxylate] | 0.2 | 8 | 1.56 |  |  |  |  | 
20 | COC(=O)[C@]1([C@@H](O)C(C)C)NC(=O)[C@H](C)[C@@H]1O [Example 1, .tau.-lactam methyl ester] | 1.56 | 8 | 12.5 |  |  |  |  | 
21 | CC(C)[C@H](O)[C@@]1(C(=O)SCCCO)NC(=O)[C@H](C)[C@@H]1O [Example 15, 3-hydroxy-2-(1-hydroxy-2-methylpropyl)-4-methyl-5-oxo-2-pyrrolidine-3-hydroxypropanethiocarboxylate] | 0.4 | 31 | 12.5 |  |  |  |  | 
22 | CC(C)[C@H](O)[C@@]1(C(=O)Sc2ccccn2)NC(=O)[C@H](C)[C@@H]1O [Example 22, 3-hydroxy-2-(1-hydroxy-2-methylpropyl)-4-methyl-5-oxo-2-pyrrolidine-2-pyridylthiocarboxylate] | 0.8 | 16 | 12.5 |  |  |  |  | 
23 | CC(C)[C@H](O)[C@@]1(C(=O)SCCC(=O)O)NC(=O)[C@H](C)[C@@H]1O [Example 2, des-N-acetylaminolactacystin] | 0.2 | 8 | 1.56 |  |  |  |  | 
24 | C=CCOC(=O)[C@H](CSC(=O)[C@]1([C@@H](O)C(C)C)NC(=O)[C@H](C)[C@@H]1O)NC(C)=O [Example 6, lactacystin allyl ester] | 0.2 | 31 | 6.25 |  |  |  |  | 
25 | CCCCSC(=O)[C@]1([C@@H](O)C(C)C)NC(=O)[C@H](C)[C@@H]1O [Example 10, 3-hydroxy-2-(1-hydroxy-2-methylpropyl)-4-methyl-5-oxo-2-pyrrolidine-butanethiocarboxylate] | 0.4 | 31 | 12.5 |  |  |  |  | 
26 | CNCCSC(=O)[C@]1([C@@H](O)C(C)C)NC(=O)[C@H](C)[C@@H]1O [Example 17, 3-hydroxy-2-(1-hydroxy-2-methylpropyl)-4-methyl-5-oxo-2-pyrrolidine-2-N-methylethanethiocarboxylate] | 0.8 | 8 | 6.25 |  |  |  |  | 
27 | CC(C)[C@H](O)[C@@]1(C(=O)SCCO)NC(=O)[C@H](C)[C@@H]1O [Example 14, 3-hydroxy-2-(1-hydroxy-2-methylpropyl)-4-methyl-5-oxo-2-pyrrolidine-2-hydroxyethanethiocarboxylate] | 3.12 | 8 | 25 |  |  |  |  | 
